# How the values were obtained:
# Type in all cases: biochemical
# ABCC10 (MRP7) [1] = target: T1, ABCC10 (MRP7) (Homo sapiens, UniProt Q5T3U5); assay: Pi release ATPase stimulation assay; settings: 5 mM ATP, Mg2+, pH 7.5, 37 °C; crude membranes
# T1 sequence (Q5T3U5 1-1492): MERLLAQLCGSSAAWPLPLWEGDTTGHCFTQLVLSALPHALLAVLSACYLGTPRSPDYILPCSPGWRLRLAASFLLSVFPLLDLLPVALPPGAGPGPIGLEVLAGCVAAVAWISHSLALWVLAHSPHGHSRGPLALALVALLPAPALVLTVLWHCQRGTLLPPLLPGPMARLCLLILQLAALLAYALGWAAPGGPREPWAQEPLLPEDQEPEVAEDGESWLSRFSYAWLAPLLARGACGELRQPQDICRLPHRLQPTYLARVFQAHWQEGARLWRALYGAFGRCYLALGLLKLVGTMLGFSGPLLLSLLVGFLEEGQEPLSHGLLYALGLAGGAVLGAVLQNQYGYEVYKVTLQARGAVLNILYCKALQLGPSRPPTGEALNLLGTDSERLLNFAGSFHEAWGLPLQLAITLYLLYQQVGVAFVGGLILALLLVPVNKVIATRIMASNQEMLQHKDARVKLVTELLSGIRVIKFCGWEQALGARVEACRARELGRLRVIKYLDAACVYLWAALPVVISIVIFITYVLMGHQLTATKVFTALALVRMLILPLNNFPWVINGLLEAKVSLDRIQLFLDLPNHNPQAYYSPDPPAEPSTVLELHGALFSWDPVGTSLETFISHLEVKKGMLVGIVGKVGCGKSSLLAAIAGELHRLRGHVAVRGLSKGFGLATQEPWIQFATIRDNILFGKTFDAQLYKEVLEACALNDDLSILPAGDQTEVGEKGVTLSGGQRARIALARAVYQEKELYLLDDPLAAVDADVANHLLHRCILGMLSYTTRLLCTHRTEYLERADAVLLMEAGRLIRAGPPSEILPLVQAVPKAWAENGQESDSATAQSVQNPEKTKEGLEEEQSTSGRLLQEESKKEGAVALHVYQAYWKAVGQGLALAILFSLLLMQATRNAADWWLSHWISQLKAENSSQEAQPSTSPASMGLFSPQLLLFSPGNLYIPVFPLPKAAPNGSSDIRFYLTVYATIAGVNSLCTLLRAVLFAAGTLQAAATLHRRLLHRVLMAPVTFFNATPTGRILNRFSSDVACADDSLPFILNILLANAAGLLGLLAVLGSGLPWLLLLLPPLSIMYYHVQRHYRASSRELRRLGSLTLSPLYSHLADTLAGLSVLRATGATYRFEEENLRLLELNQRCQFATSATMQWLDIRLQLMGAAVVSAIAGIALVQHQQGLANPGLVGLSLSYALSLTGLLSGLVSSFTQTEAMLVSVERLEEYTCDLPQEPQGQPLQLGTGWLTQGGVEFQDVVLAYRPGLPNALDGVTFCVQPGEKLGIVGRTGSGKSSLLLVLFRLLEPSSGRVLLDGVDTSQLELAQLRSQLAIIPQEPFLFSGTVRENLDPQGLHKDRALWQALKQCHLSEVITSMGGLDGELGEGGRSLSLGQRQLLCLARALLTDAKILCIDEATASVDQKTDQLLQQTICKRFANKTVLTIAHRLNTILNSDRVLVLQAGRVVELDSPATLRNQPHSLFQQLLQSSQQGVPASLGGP
# ABCC10 (MRP7) [2] = target: T1, ABCC10 (MRP7); assay: Pi release ATPase stimulation assay; settings: 5 mM ATP, Mg2+, pH 7.5, 37 °C; crude membranes; remark: listed apart in the source
# ABCC10 (MRP7) [3] = target: T1, ABCC10 (MRP7); assay: Pi release ATPase stimulation assay; settings: 5 mM ATP, Mg2+, pH 7.5, 37 °C; crude membranes; remark: listed apart in the source
# ABCC10 (MRP7) [4] = target: T1, ABCC10 (MRP7); assay: Pi release ATPase inhibition assay; settings: read-out: % inhibition at 0.625 μM
# ABCC10 (MRP7) [5] = target: T1, ABCC10 (MRP7); assay: Pi release ATPase inhibition assay; settings: 5 mM ATP, Mg2+, pH 7.5, 37 °C; crude membranes
compound,measurement,setting,value
Nc1ccn([C@@H]2O[C@H](CO)[C@@H](O)[C@@H]2O)c(=O)n1 [Ara-C],% stimulation of ATPase activity at 0.625 μM,ABCC10 (MRP7) [1],31.8%
C[C@]12CC[C@@H]3c4ccc(O)cc4CC[C@H]3[C@@H]1CC[C@@H]2O[C@@H]1O[C@H](C(=O)O)[C@@H](O)[C@H](O)[C@H]1O [E217βG],% stimulation of ATPase activity,ABCC10 (MRP7) [2],30%
CC(=O)O[C@@]12CO[C@@H]1C[C@H](O)[C@@]1(C)C(=O)[C@H](O)C3=C(C)[C@@H](OC(=O)[C@H](O)[C@@H](NC(=O)OC(C)(C)C)c4ccccc4)C[C@@](O)([C@@H](OC(=O)c4ccccc4)[C@H]21)C3(C)C [docetaxel],% stimulation of ATPase activity at 5 μM,ABCC10 (MRP7) [3],24.38%
C#Cc1cccc(Nc2ncnc3cc(OCCOC)c(OCCOC)cc23)c1 [erlotinib],inhibition at 0.625 µM,ABCC10 (MRP7) [4],47%
Cc1ccc(NC(=O)c2ccc(CN3CCN(C)CC3)cc2)cc1Nc1nccc(-c2cccnc2)n1 [imatinib],% inhibition at 5 μM,ABCC10 (MRP7) [5],"cepharanthine, sorafenib, imatinib, nilotinib, erlotinib and lapatinib were effective inhibitors of ABCC10 ATPase activity"
Cc1cn(-c2cc(NC(=O)c3ccc(C)c(Nc4nccc(-c5cccnc5)n4)c3)cc(C(F)(F)F)c2)cn1 [nilotinib],inhibition at 0.625 µM,ABCC10 (MRP7) [4],41.4%
CC(=O)O[C@H]1C(=O)[C@@]2(C)[C@H]([C@H](OC(=O)c3ccccc3)[C@]3(O)C[C@H](OC(=O)[C@H](O)[C@@H](NC(=O)c4ccccc4)c4ccccc4)C(C)=C1C3(C)C)[C@]1(OC(C)=O)CO[C@@H]1C[C@@H]2O [paclitaxel],% stimulation of ATPase activity at 5 μM,ABCC10 (MRP7) [3],15%
CNC(=O)c1cc(Oc2ccc(NC(=O)Nc3ccc(Cl)c(C(F)(F)F)c3)cc2)ccn1 [sorafenib],% inhibition at 5 μM,ABCC10 (MRP7) [5],"cepharanthine, sorafenib, imatinib, nilotinib, erlotinib and lapatinib were effective inhibitors of ABCC10 ATPase activity"
